In patent US11407737B2, “Inhibitors of RAF kinases” (Kinnate Biopharma Inc., priority 2020, dated 2022):

Target: human RAF1 (Homo sapiens (Human), UniProt P04049)
Assay: Protein kinase assay (radiometric 33P-ATP, MEK1 (K97R) substrate), RAF-1
Assay type: biochemical
Details: human MEK1 (K97R) substrate 3 micromolar, ATP 10 micromolar; 10-dose, 3-fold serial dilution starting at 10 micromolar; read-out: RAF-1 IC50
Procedure: Example 1: Kinase Assay Protocol
Assay platform was used to measure kinase/inhibitor interactions as described previously (Anastassiadis et al., 2011). In brief, for each reaction, kinase and substrate were mixed in a buffer containing 20 mM HEPES (pH 7.5), 10 mM MgCl2, 1 mM EGTA, 0.02% Brij35, 0.02 mg/mL BSA, 0.1 mM Na3VO4, 2 mM DTT, and 1% DMSO. All compounds were solubilized in DMSO. Compounds were then added to each reaction mixture via acoustic dispense using an ECHO 550 nanoliter dispenser. For human RAF1 testing, human MEK1 (K97R) was used as a substrate at a concentration of 3 micromolar, with a final ATP concentration of 10 micromolar. For human BRAF testing, human MEK1 (K97R) was used as a substrate at 1 micromolar concentration, with a final ATP concentration of 25 micromolar. […] After a 20-min incubation, ATP (Sigma-Aldrich, St. Louis, Mo. 63178) and [g33P] ATP (specific activity 10 microCi/microliter) purchased at PerkinElmer (Boston, Mass., 02118 Cat #BLU 003H250UC) were added at a final total concentration of […]. Reactions were carried out at room temperature for 2 hr and spotted onto P81 ion exchange cellulose chromatography paper (Reaction Biology). Filter paper was washed in 0.75% phosphoric acid to remove unincorporated ATP. The percent remaining kinase activity relative to a vehicle-containing (DMSO) kinase reaction was calculated for each kinase/inhibitor pair. IC50 values were calculated using Prism 5 (GraphPad).

Sequence of human RAF1 (P04049 whole entry): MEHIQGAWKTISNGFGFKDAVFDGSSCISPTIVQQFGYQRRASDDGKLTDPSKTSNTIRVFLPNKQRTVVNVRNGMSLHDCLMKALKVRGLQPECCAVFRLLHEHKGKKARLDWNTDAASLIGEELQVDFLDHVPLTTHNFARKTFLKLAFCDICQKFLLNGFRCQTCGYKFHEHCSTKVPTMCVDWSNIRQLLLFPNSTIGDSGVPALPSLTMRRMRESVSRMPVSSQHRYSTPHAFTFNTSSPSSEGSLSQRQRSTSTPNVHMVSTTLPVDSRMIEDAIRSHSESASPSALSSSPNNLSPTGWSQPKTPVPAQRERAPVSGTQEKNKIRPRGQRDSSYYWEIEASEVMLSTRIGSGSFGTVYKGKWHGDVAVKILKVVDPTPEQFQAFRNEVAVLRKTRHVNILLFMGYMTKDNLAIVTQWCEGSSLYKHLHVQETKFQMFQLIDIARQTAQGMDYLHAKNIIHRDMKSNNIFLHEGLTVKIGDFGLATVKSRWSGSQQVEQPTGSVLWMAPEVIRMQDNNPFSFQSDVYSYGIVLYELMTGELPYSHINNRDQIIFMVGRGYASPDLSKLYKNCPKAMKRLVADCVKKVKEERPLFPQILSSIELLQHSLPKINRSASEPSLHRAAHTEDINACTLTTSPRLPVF

IC50 [nM] | Compound
< 1 | Cc1ccc(NC(=O)N2CC[C@@H](CC(F)(F)F)C2)cc1-c1cc(C2CCNC2)nc(N2CCOCC2)c1 (stereo partly drawn) [Example 34, (3S)—N-[4-methyl-3-[2-(morpholin-4-yl)-6-(pyrrolidin-3-yl)pyridin-4-yl]phenyl]-3-(2,2,2-trifluoroethyl)pyrrolidine-1-carboxamide]
1 to 10 | Cc1ccc(NC(=O)N2CC[C@@H](CC(F)(F)F)C2)cc1-c1cc(CCO)nc(N2CCOCC2)c1 [Example 32, (3S)—N-[3-[2-(2-hydroxyethyl)-6-(morpholin-4-yl)pyridin-4-yl]-4-methylphenyl]-3-(2,2,2-trifluoroethyl)pyrrolidine-1-carboxamide]
1 to 10 | Cc1cc(F)c(NC(=O)N2CCC(C(C)(C)F)C2)cc1-c1cc(-c2cnn(C)c2)nc(N2CCOCC2)c1 (centres unmarked) [Example 85, N-{2-fluoro-4-methyl-5-[2-(1-methylpyrazol-4-yl)-6-(morpholin-4-yl)pyridin-4-yl]phenyl}-3-(2-fluoropropan-2-yl)pyrrolidine-1-carboxamide]
1 to 10 | Cc1cc(F)c(NC(=O)N2CC=C(C(F)(F)C(F)(F)F)C2)cc1-c1cc(-c2cnn(C)c2)nc(N2CCOCC2)c1 [Example 79, N-{2-fluoro-4-methyl-5-[2-(1-methylpyrazol-4-yl)-6-(morpholin-4-yl)pyridin-4-yl]phenyl}-3-(1,1,2,2,2-pentafluoroethyl)-2,5-dihydropyrrole-1-carboxamide]
1 to 10 | Cc1ccc(NC(=O)N2CCO[C@@H](C(F)(F)F)C2)cc1-c1cc(-c2cnn(C)c2)nc(N2CCOCC2)c1 [Example 63, (2R)—N-{4-methyl-3-[2-(1-methylpyrazol-4-yl)-6-(morpholin-4-yl)pyridin-4-yl]phenyl}-2-(trifluoromethyl)morpholine-4-carboxamide]
10 to 100 | Cc1ccc(NC(=O)N2CC[C@@H](CC(F)(F)F)C2)cc1-c1cc(C2CCCNC2)nc(N2CCOCC2)c1 (stereo partly drawn) [Example 28, (3S)—N-[4-methyl-3-[2-(morpholin-4-yl)-6-(piperidin-3-yl)pyridin-4-yl]phenyl]-3-(2,2,2-trifluoroethyl)pyrrolidine-1-carboxamide]
< 1 | Cc1cc(F)c(NC(=O)N2CCO[C@H](C(F)(F)F)C2)cc1-c1cc(-c2cnn(C)c2)nc(N2CCOCC2)c1 [Example 67, (2S)—N-{2-fluoro-4-methyl-5-[2-(1-methylpyrazol-4-yl)-6-(morpholin-4-yl)pyridin-4-yl]phenyl}-2-(trifluoromethyl)morpholine-4-carboxamide]
< 1 | Cc1ccc(NC(=O)N2CC=C(C(F)(F)F)C2)cc1-c1cc(-c2cnn(C)c2)nc(N2CCOCC2)c1 [Example 66, N-{4-methyl-3-[2-(1-methylpyrazol-4-yl)-6-(morpholin-4-yl)pyridin-4-yl]phenyl}-3-(trifluoromethyl)-2,5-dihydropyrrole-1-carboxamide]
1 to 10 | Cc1ccc(NC(=O)N2CC[C@@H](CC(F)(F)F)C2)cc1-c1cc(N2CCOCC2)nc(C(F)(F)F)c1 [Example 56, (3S)—N-[4-methyl-3-[2-(morpholin-4-yl)-6-(trifluoromethyl)pyridin-4-yl]phenyl]-3-(2,2,2-trifluoroethyl)pyrrolidine-1-carboxamide]
< 1 | Cc1cc(F)c(NC(=O)N2CC[C@@H](C(C)(F)F)C2)cc1-c1cc(-c2cnn(C)c2)nc(N2CCOCC2)c1 (single isomer, unassigned) [Example 84]
1 to 10 | Cc1ccc(NC(=O)N2CC[C@@H](CC(F)(F)F)C2)cc1-c1cc(/C=C/[C@@H](C)O)nc(N2CCOCC2)c1 [Example 17, (3S)—N-(3-[2-[(1E,3R)-3-hydroxybut-1-en-1-yl]-6-(morpholin-4-yl)pyridin-4-yl]-4-methylphenyl)-3-(2,2,2-trifluoroethyl)pyrrolidine-1-carboxamide]
1 to 10 | Cc1cc(F)c(NC(=O)N2CC[C@@H](C(C)(C)C)C2)cc1-c1cc(-c2cnn(C)c2)nc(N2CCOCC2)c1 (single isomer, unassigned) [Example 82]
1 to 10 | Cc1ccc(NC(=O)N2CC[C@@H](CC(F)(F)F)C2)cc1-c1cc(-c2cc(C)n(C)n2)nc(N2CCOCC2)c1 [Example 52, (3S)—N-[3-[2-(1,5-dimethylpyrazol-3-yl)-6-(morpholin-4-yl)pyridin-4-yl]-4-methylphenyl]-3-(2,2,2-trifluoroethyl)pyrrolidine-1-carboxamide]
1 to 10 | Cc1ccc(NC(=O)N2CC[C@@H](CC(F)(F)F)C2)cc1-c1cc(C(=O)NCC(C)(C)O)nc(N2CCOCC2)c1 [Example 9, N-(2-hydroxy-2-methylpropyl)-4-[2-methyl-5-[(3S)-3-(2,2,2-trifluoroethyl)pyrrolidine-1-carbonylamino]phenyl]-6-(morpholin-4-yl)pyridine-2-carboxamide]
1 to 10 | Cc1ccc(NC(=O)N2CC[C@@H](CC(F)(F)F)C2)cc1-c1cc(C(=O)NCCO)nc(N2CCOCC2)c1 [Example 4, N-(2-hydroxyethyl)-4-[2-methyl-5-[(3S)-3-(2,2,2-trifluoroethyl)pyrrolidine-1-carbonylamino]phenyl]-6-(morpholin-4-yl)pyridine-2-carboxamide]
1 to 10 | Cc1ccc(NC(=O)N2CC[C@@H](CC(F)(F)F)C2)cc1-c1cc(-c2ccnc(N)c2)nc(N2CCOCC2)c1 [Example 40, (3S)—N-[3-[2′-amino-6-(morpholin-4-yl)-[2,4′-bipyridin]-4-yl]-4-methylphenyl]-3-(2,2,2-trifluoroethyl)pyrrolidine-1-carboxamide]
1 to 10 | Cc1ccc(NC(=O)N2CC[C@@H](CC(F)(F)F)C2)cc1-c1cc(C(F)F)nc(N2CCOCC2)c1 [Example 57, (3S)—N-{3-[2-(difluoromethyl)-6-(morpholin-4-yl)pyridin-4-yl]-4-methylphenyl}-3-(2,2,2-trifluoroethyl)pyrrolidine-1-carboxamide]
1 to 10 | Cc1ccc(NC(=O)N2CC[C@@H](CC(F)(F)F)C2)cc1-c1cc(-c2cc(N)n(C)n2)nc(N2CCOCC2)c1 [Example 44, (3S)-N-[3-[2-(5-amino-1-methylpyrazol-3-yl)-6-(morpholin-4-yl)pyridin-4-yl]-4-methylphenyl]-3-(2,2,2-trif1uoroethyl)pyrrolidine-1-carboxamide]
1 to 10 | Cc1ccc(NC(=O)N2CC[C@@H](CC(F)(F)F)C2)cc1-c1cc(-c2cncs2)nc(N2CCOCC2)c1 [Example 15, (3S)—N-[4-methyl-3-[2-(morpholin-4-yl)-6-(1,3-thiazol-5-yl)pyridin-4-yl]phenyl]-3-(2,2,2-trifluoroethyl)pyrrolidine-1-carboxamide]
1 to 10 | Cc1cc(-c2cc(NC(=O)N3CC[C@@H](CC(F)(F)F)C3)ccc2C)cc(N2CCOCC2)n1 [Example 1, (3S)—N-[4-methyl-3-[2-methyl-6-(morpholin-4-yl)pyridin-4-yl]phenyl]-3-(2,2,2-trifluoroethyl)pyrrolidine-1-carboxamide]
1 to 10 | Cc1ccc(NC(=O)N2CC[C@@H](CC(F)(F)F)C2)cc1-c1cc(-c2ccnc(N)n2)nc(N2CCOCC2)c1 [Example 45, (3S)—N-[3-[2-(2-aminopyrimidin-4-yl)-6-(morpholin-4-yl)pyridin-4-yl]-4-methylphenyl]-3-(2,2,2-trifluoroethyl)pyrrolidine-1-carboxamide]
1 to 10 | Cc1ccc(NC(=O)N2CC[C@@H](CC(F)(F)F)C2)cc1-c1cc(-c2cn(C)nc2C)nc(N2CCOCC2)c1 [Example 37, (3S)—N-[3-[2-(1,3-dimethylpyrazol-4-yl)-6-(morpholin-4-yl)pyridin-4-yl]-4-methylphenyl]-3-(2,2,2-trifluoroethyl)pyrrolidine-1-carboxamide]

Compound | IC50 [nM]
CCn1cc(-c2cc(-c3cc(NC(=O)N4CC[C@@H](CC(F)(F)F)C4)ccc3C)cc(N3CCOCC3)n2)cn1 [Example 78, (3S)—N-{3-[2-(1-ethylpyrazol-4-yl)-6-(morpholin-4-yl)pyridin-4-yl]-4-methylphenyl}-3-(2,2,2-trifluoroethyl)pyrrolidine-1-carboxamide] | < 1
Cc1ccc(NC(=O)N2CC[C@@H](CC(F)(F)F)C2)cc1-c1cc(C(=O)NC[C@H](C)O)nc(N2CCOCC2)c1 [Example 7, N-[(2S)-2-hydroxypropyl]-4-[2-methyl-5-[(3S)-3-(2,2,2-trifluoroethyl)pyrrolidine-1-carbonylamino]phenyl]-6-(morpholin-4-yl)pyridine-2-carboxamide] | < 1
Cc1ccc(NC(=O)N2CC[C@@H](CC(F)(F)F)C2)cc1-c1cc(C(=O)N2CC(O)C2)nc(N2CCOCC2)c1 [Example 20, (3S)—N-[3-[2-(3-hydroxyazetidine-1-carbonyl)-6-(morpholin-4-yl)pyridin-4-yl]-4-methylphenyl]-3-(2,2,2-trifluoroethyl)pyrrolidine-1-carboxamide] | < 1
Cc1ccc(NC(=O)N2CC[C@@H](CC(F)(F)F)C2)cc1-c1cc(C(=O)N[C@@H](C)CO)nc(N2CCOCC2)c1 [Example 8, N-[(2S)-1-hydroxypropan-2-yl]-4-[2-methyl-5-[(3S)-3-(2,2,2-trifluoroethyl)pyrrolidine-1-carbonylamino]phenyl]-6-(morpholin-4-yl)pyridine-2-carboxamide] | < 1
